Key:
Format in all cases: in vivo
RSV A2 [1] = assay: RSV A2-GFP microneutralization of sera, 1x RSV seropositive BALB/c mice
Protocol: Naïve female BALB/c mice were divided into designated vaccine cohorts of 8-9 mice each and dosed at Day 0. […] Successful seroconversion was confirmed by F-specific ELISA endpoint titers on Day 0. Groups of 9 mice were inoculated intramuscularly (IM) with the vaccine formulations at Day 0. 3 mice per group were evaluated for cellular immune responses at 10 days post […], while the remaining 5-6 animals per group were followed for serum antibody responses through Day 73.
Serology readouts were made at Days 0, 14, 28, 42, 56, and 73 for each group. Animals were lightly anesthetized with isoflurane and bled intraorbitally. Serum was separated and stored at −20° C. and thawed for testing. Total anti-F IgG were measured at each timepoint, with anti-F IgG1 and anti-F IgG2a ELISA endpoint dilution titers measured at Day 0 and Day 42. RSV neutralization titer was determined by a RSV A2-GFP microneutralization assay. The polyclonal nature of the anti-F IgG response was evaluated on Day 42 by competition ELISA with site-specific monoclonal antibodies to RSV-F. Anti-F IgA endpoint dilution titers were measured at Day 14 for each group.

[2] = test system: RSV-F MHC I and MHC II restricted peptides; assay: IFNγ ELISPOT of splenocytes, naive BALB/c mice; settings: Day 32, 4 days post challenge, MHC I F peptide
[3] = test system: RSV F peptide pool of overlapping 15-mers; assay: F-specific IFNγ ELISPOT of PBMC, cynomolgus monkeys
Protocol: To determine whether immunization with sF formulated with GLA-SE enhanced an F-specific T cell response, F-specific IFNγ T cell responses were measured by ELISPOT following restimulation with a peptide pool of overlapping 15-mers derived from the RSV F protein sequence. […] While the number of T cells in the sF+GLA-SE group decreased over time, one animal still met the definition of a positive responder out to day 169. At Day 169, 5 months post vaccination, a booster vaccination was given. […] In comparison, 0 of 4 monkeys in the sF alone group responded with an increase in IFNγ secreting F-specific T cells (mean 5 SFC/million).

RSV A2 [4] = assay: RSV microneutralization of sera, highly (2x) RSV seropositive BALB/c mice; settings: very small amounts of antigen
Protocol: (§1) One hundred three female BALB/c mice (Charles River), ages 6-8 weeks old, were divided into 13 groups. Group 1 had 7 mice and groups 2 through 13 had 8 mice. Following anaesthetization groups 1 through 12 were dosed with 1×10^6 plaque forming units (PFU) in 100 μL of live RSV via an intranasal (IN) route on Day 0 and Day 35. Group 13 was not exposed to RSV. On Day 56, groups 1 through 11 were immunized with placebo (PBS) or vaccine article via an intramuscular (IM) route following anesthesia with isoflurane. The vaccine articles were formulated in a total of 100 μL with 50 μL given in each hind limb. Group 12 was anesthetized with isoflurane and immunized with 1×10^6 PFU in 100 μL of live RSV via an IN route. […] Sera were obtained from retro orbital blood collection at study days 0, 28, 56 70 and 84, separated from whole blood and stored at −20° C. until evaluated. Spleens from 4 animals in each group were harvested for T cell assays on Day 67, 11 days post immunization, or at day 88, 4 days post challenge. Lung cytokines quantified at 4 days after challenge in individual lung homogenates by luminex assay (Milipore).

[5] = test system: IL-5, IL-13, IFNγ, IL-17, eotaxin; assay: Cytokines in lung homogenates after RSV challenge, naive BALB/c mice; parameters: pulmonary eotaxin levels (mean): unit not given here
Protocol: Lung homogenates were clarified by centrifugation prior to use. […] F-specific splenic cytokine production was determined by subtracting media alone values from F stimulated values.

RSV A2 [6] = assay: RSV A2-GFP neutralizing Ab titers of sera, cynomolgus monkeys
Excerpt: At Day 169, 5 months post vaccination, the booster vaccination was given.

RSV A2 [7] = assay: GFP-tagged RSV A2 micro-neutralization of sera, naive BALB/c mice; settings: day 28, prior to challenge, 0.3 μg RSV sF days 0 and 14
RSV sF = assay: Serum RSV F-specific IgG, IgG1, IgG2a ELISA, highly seropositive BALB/c mice; settings: day 84
Protocol: as §1

[8] = lung homogenates 4 days post RSV challenge

RSV sF: RSV soluble F protein, amino acids 1-524 of the RSV A2 F sequence lacking the transmembrane domain, given without adjuvant
mean RSV neutralizing titers (RSV A2 [1]; Day 14, dose 0.4 μg RSV sF assumed from order): 8.32 log2
mean RSV neutralizing titers (RSV A2 [1]; Day 14, dose 10 μg RSV sF assumed from order): 8.66 log2
mean RSV neutralizing titers (RSV A2 [1]; Day 14, second value, dose 2 μg RSV sF assumed from order): 7.82 log2
F-specific CD8 IFNγ ELISPOT [2]: ~30 spot forming units (SFU)/million cells
mean F-specific IFNγ ELISPOT response ([3]; Day 42): 8 SFC/million PBMC
animals with positive F-specific IFNγ ELISPOT response ([3]; Day 42, ≥50 SFC/million increase and 4-fold rise from day −7): 0 of the 4
animals with positive F-specific IFNγ ELISPOT response ([3]; Day 183): 0 of 4
mean F-specific IFNγ ELISPOT response ([3]; Day 183): 5 SFC/million
neutralization level lower than that of the highest adjuvanted RSV sF dose of 50 μg (RSV A2 [4]): approximately 6 fold
mean IFNγ to IL-5 ratio in lung homogenates ([5]; 4 days post RSV challenge, ratio >1.0 = more Th1-type): 0.3
IL-5 and IL-13 in the lungs [5, 8]: detected
pulmonary eotaxin levels (mean) [5, 8]: 911
animals with 4-fold boost in neutralizing titers from Day −7 levels (RSV A2 [6]; Day 42): 1/4
geometric mean RSV neutralizing Ab titer (RSV A2 [6]; Day 42): 3.52±1.14 log 2
RSV neutralizing Ab titers (RSV A2 [6]; Day 169): 2.97 log 2
geomean neutralizing Ab titers (RSV A2 [6]; Day 183, 14 days following the third immunization): 4.46±1.79 log 2
serum RSV neutralizing titers (RSV A2 [7]): 4.1 log2
Th bias from RSV sF-specific IgG1 and IgG2a serum titers (RSV sF): maintained the Th1 bias
